Here are results for 18 compounds from patent US6075121A, “Modified peptide and peptide libraries with protease resistance, derivatives thereof and methods of producing and screening such” (Chiron Corporation, priority 1995, dated 2000).

For series [1], the target named is T1, dihydrofolate reductase (DHFR) found in Pneumocystis carinii (Pneumocystis carinii, UniProt P16184).
T1 sequence (P16184 1-206): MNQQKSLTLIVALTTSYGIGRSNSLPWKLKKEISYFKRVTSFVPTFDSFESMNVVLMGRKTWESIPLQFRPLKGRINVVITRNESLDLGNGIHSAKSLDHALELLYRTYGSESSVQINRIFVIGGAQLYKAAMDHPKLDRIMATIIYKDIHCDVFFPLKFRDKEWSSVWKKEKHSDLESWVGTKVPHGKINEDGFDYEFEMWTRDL
As to conditions: stated without a test; cited from earlier work.

The target in series [2] is T2, trypsin (Bos taurus, UniProt P00760).
T2 construct: gene PRSS1
T2 sequence (P00760 24-246): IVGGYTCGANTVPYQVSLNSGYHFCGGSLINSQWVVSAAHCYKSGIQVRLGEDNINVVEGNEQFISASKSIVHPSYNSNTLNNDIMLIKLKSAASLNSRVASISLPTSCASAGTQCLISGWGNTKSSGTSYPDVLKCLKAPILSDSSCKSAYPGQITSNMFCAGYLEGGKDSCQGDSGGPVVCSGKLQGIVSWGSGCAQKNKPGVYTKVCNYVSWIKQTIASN
Put plainly: Proteolysis of peptoids and peptides by trypsin. The class given is in vitro ADME. From the text: (§1) Both compounds were purified to homogeneity by HPLC.

Series [3] deals with chymotrypsin (Bos taurus, UniProt P00766). Put plainly: Proteolysis of peptoids and peptides by chymotrypsin. The class given is in vitro ADME.
Excerpt: as §1

In series [4] the test system is T3, trypsin.
T3 construct: gene PRSS1
Kind of series: Proteolysis of peptoids and peptides by trypsin. The class given is in vitro ADME. As to conditions: trypsin (isolated protease) in Tris buffer, trypsin, 37° C., pH 8.0, read-out: % Area at 280 nm Remaining of Parent Peak by RP-HPLC.
Excerpt: as §1

In series [5] the test system is chymotrypsin. Kind of series: Proteolysis of peptoids and peptides by chymotrypsin. The following applies: chymotrypsin (isolated protease) in Tris buffer, chymotrypsin, 37° C., pH 8.0, read-out: % Area at 280 nm Remaining of Parent Peak by RP-HPLC. It is filed as in vitro ADME.
Excerpt: as §1

Series [6] deals with bacterial dihydrofolate reductases. As to conditions: stated without a test; cited from earlier work.
Series [7] relates to antiserum S259-8 (epitope KDFL). Kind of series: Antibody binding of peptides and peptoids on pins, serum S259-8. More on the design: key: A `P` represents a peptide sequence which gave the highest 6-8 signals; a `*` represents a peptoid sequence which scored in the top 6-10. As to conditions: serum S259-8, epitope KDFL; for antibody binding signal rank, peptide sequence: peptide on pins; for antibody binding signal rank, peptoid sequence: peptoid on pins. As for the experimental part:
(§2) Peptoids and peptides were prepared on the pins and tested under standard conditions. The assay is best interpreted qualitatively, and the chart below gives a summary of data from three antisera tested. They are representative for the twelve sera which gave signals with both the peptoids and peptides. A `P` represents a peptide sequence which gave the highest 6-8 signals. Likewise, a `*` represents a peptoid sequence which scored in the top 6-10. For the three sera tested, 33/120 sequences are represented which lends support to the premise that there is selective binding shown by the antibody.

For series [8], the system named is antiserum S259-6 (epitope DFLEKI). Kind of series: Antibody binding of peptides and peptoids on pins, serum S259-6. More on the design: key: A `P` represents a peptide sequence which gave the highest 6-8 signals; a `*` represents a peptoid sequence which scored in the top 6-10. The following applies: serum S259-6, epitope DFLEKI. As for the experimental part:
as §2

Residues, ends and D or L forms follow the SMILES beside them. *: point of attachment. Fmoc = O=C(OCC1c2ccccc2-c2ccccc21)*

On to `COc1cc(Cc2cnc(N)nc2N)cc(OC)c1NC(=O)CCC(=O)O` [2,4-diamino-5-[3,5-di-methoxy-4-(3-hydrocarboxy-1-oxopropylamino)benzyl]pyrimidine], for which, in series [1], the “inhibitory activity on DHFR” value is “inhibitory activity specific for the enzyme dihydrofolate reductase (DHFR) found in Pneumocystis carinii”.
For `CC(C)C[C@H](NC(=O)OCC1c2ccccc2-c2ccccc21)C(=O)N[C@@H](CC(=O)O)C(=O)N[C@@H](Cc1ccccc1)C(=O)N[C@@H](CO)C(=O)N[C@@H](CCCCN)C(=O)NCC(=O)O` [PEPTIDE, FMOC-LDFSKG-OH] (Fmoc-LDFSKG-OH), the “number of places cleaved by trypsin” value on trypsin [2] is given as “only one place”. In addition, the “time to complete cleavage by trypsin” value on trypsin [2] (37° C., pH 8.0) was at most 5 min. Moreover, at chymotrypsin [3], the “number of chymotrypsin cleavage sites” value is reported as “at least two cleavage sites”. For the same compound, the “cleavage completed at the preferential chymotrypsin site” value at chymotrypsin [3] (after 10 minutes) is on record as ~ 60%. In addition, on chymotrypsin [3] (after three hours), the “cleavage at the second chymotrypsin site” value was “not completely cleaved”.
On to `CC(C)CN(CC(=O)N(CC(=O)O)CC(=O)N(CC(=O)N(CCO)CC(=O)N(CCN)CC(=O)NCC(=O)O)Cc1ccccc1)C(=O)OCC1c2ccccc2-c2ccccc21` [PEPTOID, FMOC-L*D*F*S*K*G-OH], for which, on trypsin [2] (all reaction conditions (trypsin, chymotrypsin, control)), the “change of substrate under proteolysis conditions” value is on record as “remained unchanged”. The amount remaining at 5 min, 0.48 mg/mL with trypsin [4] (5 min) and in the series on chymotrypsin [5] (5 min) was 100% in each case. The amount remaining at 10 min, 0.48 mg/mL with trypsin [4] (10 min) and in the series on chymotrypsin [5] (10 min) was 100% throughout. In addition, the share remaining at 3 h, 0.48 mg/mL in the series with trypsin [4] (3 hours) and in the series on chymotrypsin [5] (3 hours) was 100% each time.
As for `COc1cc(Cc2cnc(N)nc2N)cc(OC)c1OC` [Trimethoprim], in series [6], the “inhibition of dihydrofolate reductases” value was “potent inhibitor”.
As for DFLKS, in series [7], the “antibody binding signal rank, peptide sequence” value is given as “P”.
Take DFLSK: the “antibody binding signal rank, peptide sequence” value in series [8] and in series [7] was “P” each time.
As for DKFSL, in series [8], the “antibody binding signal rank, peptide sequence” value is given as “P”.
Same read-out and setting: in the case of FSKLD it was “P”.
As for KDFLS, the “antibody binding signal rank, peptide sequence” value in series [8] and in series [7] was “P” in each case.
Turning to KFLDS, the “antibody binding signal rank, peptide sequence” value in series [8] is “P”.
Consider KLSFD, for which, in series [7], the “antibody binding signal rank, peptide sequence” value is listed as “P” and the “antibody binding signal rank, peptoid sequence” value is “*”.
With KSDFL, the “antibody binding signal rank, peptide sequence” value in series [7] is given as “P”.
Turning to LFKDS, the “antibody binding signal rank, peptide sequence” value in series [8] is recorded as “P”.
For the compound LKFDS, in series [8], the “antibody binding signal rank, peptide sequence” value is on record as “P”.
As for LKSFD, in series [7], the “antibody binding signal rank, peptide sequence” value is recorded as “P” and the “antibody binding signal rank, peptoid sequence” value was “*”.
On to SDFLK, for which the “antibody binding signal rank, peptide sequence” value in series [8] and in series [7] was “P” each time. The “antibody binding signal rank, peptoid sequence” value in series [7] is given as “*”.
Regarding SFLDK, the “antibody binding signal rank, peptide sequence” value in series [7] is listed as “P”.
Take SKDFL: the “antibody binding signal rank, peptide sequence” value in series [7] is “P”.
